Data published in article PMC9851200, “Multiparameter phenotypic screening for endogenous TFEB and TFE3 translocation identifies novel chemical series modulating lysosome function” (Autophagy, 2022).

Legend:
Format in all cases: binding
[1] = target: T1, kinases (KINOMEscan panel) (Homo sapiens, UniProt Q9UQ88); settings: NEW KINOMEscan
T1 sequence (Q9UQ88 1-783): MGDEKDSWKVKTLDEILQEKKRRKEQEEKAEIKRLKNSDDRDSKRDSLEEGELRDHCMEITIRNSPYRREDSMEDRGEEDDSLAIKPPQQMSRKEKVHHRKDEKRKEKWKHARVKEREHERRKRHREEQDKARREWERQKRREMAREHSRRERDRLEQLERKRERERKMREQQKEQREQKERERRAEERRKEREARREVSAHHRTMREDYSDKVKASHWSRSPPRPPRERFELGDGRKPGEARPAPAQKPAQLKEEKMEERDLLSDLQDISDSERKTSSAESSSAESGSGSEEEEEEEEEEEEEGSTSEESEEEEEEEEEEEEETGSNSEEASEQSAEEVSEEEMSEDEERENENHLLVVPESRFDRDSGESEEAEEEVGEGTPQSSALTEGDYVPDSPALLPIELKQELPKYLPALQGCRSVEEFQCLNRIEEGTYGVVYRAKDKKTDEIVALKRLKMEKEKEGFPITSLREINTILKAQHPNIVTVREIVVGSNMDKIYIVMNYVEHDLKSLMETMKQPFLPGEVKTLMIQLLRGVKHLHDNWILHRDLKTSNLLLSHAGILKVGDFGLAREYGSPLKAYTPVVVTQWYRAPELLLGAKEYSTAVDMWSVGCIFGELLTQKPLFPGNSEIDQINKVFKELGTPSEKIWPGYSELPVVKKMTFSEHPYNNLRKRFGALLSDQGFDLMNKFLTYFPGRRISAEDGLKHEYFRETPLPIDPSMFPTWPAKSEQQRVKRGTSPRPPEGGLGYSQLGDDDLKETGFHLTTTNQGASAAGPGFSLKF

[2] = target: kinases (KINOMEscan panel) (Homo sapiens, UniProt P12931); settings: SRC; NEW KINOMEscan
kinases (KINOMEscan panel) (Homo sapiens, UniProt P12931), sequence (P12931 whole entry): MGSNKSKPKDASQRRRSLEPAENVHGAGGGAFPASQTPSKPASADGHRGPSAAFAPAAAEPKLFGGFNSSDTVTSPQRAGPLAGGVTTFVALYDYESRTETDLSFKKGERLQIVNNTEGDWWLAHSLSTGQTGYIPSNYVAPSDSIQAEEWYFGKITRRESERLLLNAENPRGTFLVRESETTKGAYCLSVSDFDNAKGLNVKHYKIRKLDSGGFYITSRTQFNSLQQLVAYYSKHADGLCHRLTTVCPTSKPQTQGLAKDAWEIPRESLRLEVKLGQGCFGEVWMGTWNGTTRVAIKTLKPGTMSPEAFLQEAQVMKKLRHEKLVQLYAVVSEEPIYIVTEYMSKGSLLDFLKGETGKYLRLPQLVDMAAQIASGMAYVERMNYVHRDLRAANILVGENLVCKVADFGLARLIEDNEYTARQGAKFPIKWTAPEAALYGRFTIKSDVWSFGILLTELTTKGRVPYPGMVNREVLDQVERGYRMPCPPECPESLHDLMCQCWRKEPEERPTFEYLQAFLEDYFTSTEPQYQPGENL

[3] = target: kinases (KINOMEscan panel) (Homo sapiens, UniProt P27037); settings: ACVR2A; NEW KINOMEscan
kinases (KINOMEscan panel) (Homo sapiens, UniProt P27037), sequence (P27037 20-513): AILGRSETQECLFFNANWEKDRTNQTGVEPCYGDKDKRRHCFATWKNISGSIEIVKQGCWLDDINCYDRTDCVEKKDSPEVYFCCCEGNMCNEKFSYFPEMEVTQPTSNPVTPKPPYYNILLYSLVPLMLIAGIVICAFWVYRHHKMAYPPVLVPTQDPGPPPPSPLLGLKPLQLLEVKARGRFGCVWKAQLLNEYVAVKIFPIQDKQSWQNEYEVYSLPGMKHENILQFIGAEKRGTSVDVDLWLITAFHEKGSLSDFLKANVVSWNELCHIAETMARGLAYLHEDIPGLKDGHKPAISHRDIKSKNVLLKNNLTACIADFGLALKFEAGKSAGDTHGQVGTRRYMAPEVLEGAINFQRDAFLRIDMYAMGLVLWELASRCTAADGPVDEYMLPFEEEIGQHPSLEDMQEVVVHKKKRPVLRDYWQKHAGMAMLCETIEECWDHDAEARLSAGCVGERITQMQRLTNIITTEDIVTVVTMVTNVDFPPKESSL

[4] = target: kinases (KINOMEscan panel) (Homo sapiens, UniProt Q9H422); settings: kinase HIPK3; NEW KINOMEscan
[5] = target: kinases (KINOMEscan panel) (Homo sapiens, UniProt Q13557); settings: kinase CAMK2D; NEW KINOMEscan
kinases (KINOMEscan panel) (Homo sapiens, UniProt Q13557), sequence (Q13557 whole entry): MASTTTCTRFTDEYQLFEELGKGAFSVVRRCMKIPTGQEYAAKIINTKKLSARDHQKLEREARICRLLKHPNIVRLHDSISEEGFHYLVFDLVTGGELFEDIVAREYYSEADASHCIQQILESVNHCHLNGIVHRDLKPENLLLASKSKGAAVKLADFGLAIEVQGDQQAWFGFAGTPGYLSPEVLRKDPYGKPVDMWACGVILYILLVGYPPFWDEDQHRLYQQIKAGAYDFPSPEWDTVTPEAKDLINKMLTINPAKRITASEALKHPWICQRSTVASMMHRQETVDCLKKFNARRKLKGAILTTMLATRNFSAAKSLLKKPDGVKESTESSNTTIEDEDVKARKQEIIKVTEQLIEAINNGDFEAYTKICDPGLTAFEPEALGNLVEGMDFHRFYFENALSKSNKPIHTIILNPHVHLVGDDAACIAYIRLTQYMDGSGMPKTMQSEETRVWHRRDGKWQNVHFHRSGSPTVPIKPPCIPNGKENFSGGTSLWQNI

[6] = target: kinases (KINOMEscan panel) (Homo sapiens, UniProt P32298); settings: kinase GRK4; NEW KINOMEscan
kinases (KINOMEscan panel) (Homo sapiens, UniProt P32298), sequence (P32298 whole entry): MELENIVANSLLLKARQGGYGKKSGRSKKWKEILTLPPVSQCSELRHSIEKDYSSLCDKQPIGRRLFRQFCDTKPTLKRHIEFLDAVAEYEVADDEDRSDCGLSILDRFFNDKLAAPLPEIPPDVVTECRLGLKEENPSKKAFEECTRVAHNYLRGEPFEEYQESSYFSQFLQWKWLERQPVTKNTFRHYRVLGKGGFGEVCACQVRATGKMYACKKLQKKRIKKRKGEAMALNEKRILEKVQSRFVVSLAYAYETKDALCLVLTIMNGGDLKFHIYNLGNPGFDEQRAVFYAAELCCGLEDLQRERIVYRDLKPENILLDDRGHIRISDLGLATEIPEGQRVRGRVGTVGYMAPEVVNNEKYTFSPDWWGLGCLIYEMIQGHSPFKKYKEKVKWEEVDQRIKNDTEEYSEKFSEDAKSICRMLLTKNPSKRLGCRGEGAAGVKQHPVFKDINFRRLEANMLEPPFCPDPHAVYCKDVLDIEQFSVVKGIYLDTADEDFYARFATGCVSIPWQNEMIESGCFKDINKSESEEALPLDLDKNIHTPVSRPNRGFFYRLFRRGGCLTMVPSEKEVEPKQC

[7] = target: T2, kinases (KINOMEscan panel) (Homo sapiens, UniProt O00141); settings: kinase SGK1; NEW KINOMEscan
T2 sequence (O00141 1-431): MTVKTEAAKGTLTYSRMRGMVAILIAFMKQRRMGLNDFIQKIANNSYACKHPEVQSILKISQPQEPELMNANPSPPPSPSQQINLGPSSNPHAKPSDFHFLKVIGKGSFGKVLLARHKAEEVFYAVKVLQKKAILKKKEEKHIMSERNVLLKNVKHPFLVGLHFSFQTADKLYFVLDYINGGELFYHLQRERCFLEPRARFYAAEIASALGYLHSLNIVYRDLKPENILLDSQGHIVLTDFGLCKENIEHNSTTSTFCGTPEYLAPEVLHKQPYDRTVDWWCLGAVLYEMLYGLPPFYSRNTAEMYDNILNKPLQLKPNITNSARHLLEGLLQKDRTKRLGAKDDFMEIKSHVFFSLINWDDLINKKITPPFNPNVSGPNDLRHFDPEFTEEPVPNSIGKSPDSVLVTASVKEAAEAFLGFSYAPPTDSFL

[8] = target: kinases (KINOMEscan panel) (Homo sapiens, UniProt P42685); settings: kinase FRK; NEW KINOMEscan
kinases (KINOMEscan panel) (Homo sapiens, UniProt P42685), sequence (P42685 whole entry): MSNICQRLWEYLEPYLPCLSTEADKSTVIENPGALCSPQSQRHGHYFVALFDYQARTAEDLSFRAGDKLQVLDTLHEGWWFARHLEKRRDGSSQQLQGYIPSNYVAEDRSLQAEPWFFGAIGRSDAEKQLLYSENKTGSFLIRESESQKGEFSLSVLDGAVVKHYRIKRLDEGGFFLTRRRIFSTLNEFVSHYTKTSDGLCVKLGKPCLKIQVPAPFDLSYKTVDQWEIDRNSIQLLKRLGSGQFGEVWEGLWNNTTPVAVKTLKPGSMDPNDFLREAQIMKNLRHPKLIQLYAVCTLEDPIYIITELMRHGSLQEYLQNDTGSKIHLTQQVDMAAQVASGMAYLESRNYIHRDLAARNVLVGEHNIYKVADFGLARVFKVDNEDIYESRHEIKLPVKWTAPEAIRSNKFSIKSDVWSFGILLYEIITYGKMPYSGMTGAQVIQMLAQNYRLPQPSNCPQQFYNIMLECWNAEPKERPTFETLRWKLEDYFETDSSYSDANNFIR

[9] = target: kinases (KINOMEscan panel) (Homo sapiens, UniProt P07949, V804M); settings: kinase RET(V804M); NEW KINOMEscan
kinases (KINOMEscan panel) (Homo sapiens, UniProt P07949, V804M), sequence (P07949 29-1114 V804M): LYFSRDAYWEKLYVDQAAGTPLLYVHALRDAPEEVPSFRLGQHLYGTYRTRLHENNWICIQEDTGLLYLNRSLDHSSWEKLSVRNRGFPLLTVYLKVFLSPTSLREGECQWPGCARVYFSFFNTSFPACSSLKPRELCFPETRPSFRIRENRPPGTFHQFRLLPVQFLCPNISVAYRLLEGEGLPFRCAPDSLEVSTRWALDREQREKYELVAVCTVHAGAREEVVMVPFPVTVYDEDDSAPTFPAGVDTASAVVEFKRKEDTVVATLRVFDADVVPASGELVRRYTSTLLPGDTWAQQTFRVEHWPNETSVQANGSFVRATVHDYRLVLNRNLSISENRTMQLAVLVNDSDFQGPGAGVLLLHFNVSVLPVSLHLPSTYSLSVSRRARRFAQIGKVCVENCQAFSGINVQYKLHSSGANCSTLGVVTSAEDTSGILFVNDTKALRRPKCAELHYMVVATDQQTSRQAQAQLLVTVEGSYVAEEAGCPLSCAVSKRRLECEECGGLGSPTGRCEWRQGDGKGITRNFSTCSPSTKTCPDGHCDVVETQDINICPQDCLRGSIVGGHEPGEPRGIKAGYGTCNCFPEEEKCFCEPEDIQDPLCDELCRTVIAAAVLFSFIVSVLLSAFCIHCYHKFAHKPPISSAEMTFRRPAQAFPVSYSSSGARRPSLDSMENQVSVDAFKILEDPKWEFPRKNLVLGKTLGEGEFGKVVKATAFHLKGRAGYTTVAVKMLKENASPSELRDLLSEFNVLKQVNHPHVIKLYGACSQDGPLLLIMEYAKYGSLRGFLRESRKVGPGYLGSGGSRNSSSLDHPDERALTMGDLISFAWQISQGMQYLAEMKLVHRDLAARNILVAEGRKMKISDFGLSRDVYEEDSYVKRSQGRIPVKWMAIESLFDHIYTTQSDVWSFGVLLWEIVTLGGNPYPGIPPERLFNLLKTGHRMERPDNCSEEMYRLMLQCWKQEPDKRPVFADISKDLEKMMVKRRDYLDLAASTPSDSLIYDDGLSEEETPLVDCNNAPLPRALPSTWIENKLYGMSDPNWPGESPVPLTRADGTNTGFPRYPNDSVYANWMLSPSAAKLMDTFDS

[10] = target: kinases (KINOMEscan panel) (Homo sapiens, UniProt P08069); settings: kinase IGF1R; NEW KINOMEscan
[11] = target: kinases (KINOMEscan panel) (Homo sapiens, UniProt P35916); settings: FLT4; NEW KINOMEscan
[12] = target: kinases (KINOMEscan panel) (Homo sapiens, UniProt Q16512); settings: NEW KINOMEscan
[13] = target: kinases (KINOMEscan panel) (Homo sapiens, UniProt P21860); settings: ERBB3; NEW KINOMEscan
kinases (KINOMEscan panel) (Homo sapiens, UniProt P21860), sequence (P21860 20-1342): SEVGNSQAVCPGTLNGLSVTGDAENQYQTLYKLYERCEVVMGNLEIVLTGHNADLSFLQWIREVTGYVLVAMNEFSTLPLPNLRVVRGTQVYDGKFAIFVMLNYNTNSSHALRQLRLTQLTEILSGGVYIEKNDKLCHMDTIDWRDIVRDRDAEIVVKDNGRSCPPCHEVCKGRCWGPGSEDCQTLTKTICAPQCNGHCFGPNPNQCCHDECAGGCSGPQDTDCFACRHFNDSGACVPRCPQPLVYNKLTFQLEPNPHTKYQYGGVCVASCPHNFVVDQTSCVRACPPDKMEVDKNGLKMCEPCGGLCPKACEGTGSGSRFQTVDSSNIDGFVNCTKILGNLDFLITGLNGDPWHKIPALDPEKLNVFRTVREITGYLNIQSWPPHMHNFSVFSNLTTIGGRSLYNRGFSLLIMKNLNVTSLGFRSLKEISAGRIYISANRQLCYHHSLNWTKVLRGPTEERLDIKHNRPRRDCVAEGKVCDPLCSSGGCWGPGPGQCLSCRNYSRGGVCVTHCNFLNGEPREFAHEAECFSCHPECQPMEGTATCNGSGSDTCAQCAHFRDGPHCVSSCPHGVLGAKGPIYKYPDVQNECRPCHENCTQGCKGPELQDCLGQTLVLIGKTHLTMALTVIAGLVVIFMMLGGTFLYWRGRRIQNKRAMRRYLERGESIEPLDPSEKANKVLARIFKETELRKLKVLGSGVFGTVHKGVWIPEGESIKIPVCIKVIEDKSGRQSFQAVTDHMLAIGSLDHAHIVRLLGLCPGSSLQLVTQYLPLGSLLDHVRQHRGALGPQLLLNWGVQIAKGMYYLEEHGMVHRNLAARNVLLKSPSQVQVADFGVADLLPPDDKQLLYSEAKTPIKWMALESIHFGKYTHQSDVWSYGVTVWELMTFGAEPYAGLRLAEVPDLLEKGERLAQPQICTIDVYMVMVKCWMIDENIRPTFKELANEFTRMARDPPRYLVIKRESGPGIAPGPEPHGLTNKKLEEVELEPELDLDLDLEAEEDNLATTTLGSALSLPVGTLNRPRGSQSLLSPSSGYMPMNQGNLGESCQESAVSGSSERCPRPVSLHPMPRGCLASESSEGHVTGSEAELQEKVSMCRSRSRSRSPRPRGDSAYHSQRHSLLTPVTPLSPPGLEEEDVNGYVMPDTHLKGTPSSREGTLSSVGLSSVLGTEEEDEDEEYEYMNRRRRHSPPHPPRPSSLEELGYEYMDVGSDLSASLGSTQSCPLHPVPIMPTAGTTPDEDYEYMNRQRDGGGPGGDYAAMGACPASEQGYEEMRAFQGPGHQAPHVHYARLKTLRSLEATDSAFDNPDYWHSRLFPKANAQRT

SMILES | KINOMEscan CDK11A [1] | KINOMEscan SRC [2] | KINOMEscan ACVR2A [3] | KINOMEscan HIPK3 [4] | KINOMEscan CAMK2D [5] | KINOMEscan GRK4 [6] | KINOMEscan SGK1 [7] | KINOMEscan FRK [8] | KINOMEscan RET(V804M) [9] | KINOMEscan IGF1R [10] | KINOMEscan FLT4 [11] | KINOMEscan PKN1 [12] | KINOMEscan ERBB3 [13]
Cc1cccc(-c2nc(Nc3ccc4nn(C)cc4c3)c3ccccc3n2)n1 [NK167] | 24 | 13 | 0 | 0 | 0 | 0 | 0 | 0 | 0 | 0 | 0 | 0 | 0
Cc1cccc(-c2nc(N(C)c3ccc4ncsc4c3)c3ccccc3n2)n1 [NK-161] | 25 | 18 | 0 | 0 | 0 | 0 | 14 | 0 | 0 | 14 | 1 | 0 | 11
